PMC11149917, “Translational and Therapeutic Evaluation of RAS-GTP Inhibition by RMC-6236 in RAS-Driven Cancers” (Cancer Discovery, 2024)
pEC50: −log10 of the molar value. Read-outs that look alike come from different tables or passages of the source.

Tested on: panel of 78 cancer cell lines
Assay: Cell panel 3D methylcellulose CellTiter-Glo proliferation
Type: cell-based
Settings: Homo sapiens
Description: A panel of 78 cancer cell lines harboring mutant and wild-type RAS was selected for screening at Crown Bioscience (Supplementary Table S2). The panel consisted of cell lines with any substitution at position 12 of KRAS, cell lines with any substitutions at position 61 of NRAS, and cell lines with a BRAF^V600E mutation. […] Cells were incubated for 120 hours prior to measurement of adenosine triphosphate (ATP) levels using the CellTiter-Glo Luminescent Cell Viability Assay (CTG; Promega, G7572), a method of determining the number of metabolically active cells based on quantitation of cellular ATP, according to the manufacturer's instructions. To measure induction of apoptosis, cells were incubated with RMC-6236 for 48 hours prior to measuring cleavage of a proluminescent caspase-3/7 DEVD-aminoluciferin substrate using the CaspaseGlo-3/7 Assay (Promega, G8092) according to the manufacturer’s instructions.

SMILES: CCn1c(-c2cc(N3CCN(C)CC3)cnc2[C@H](C)OC)c2c3cc(ccc31)-c1csc(n1)C[C@H](NC(=O)[C@H]1C[C@@H]1C)C(=O)N1CCC[C@H](N1)C(=O)OCC(C)(C)C2 [RMC-6236]
- pEC50 (NCI-H441, NCIH441, KRAS G12V, Lung, read-out: Proliferation Inhibition (EC50)): 8.59
- pEC50 (NCI-H727, NCIH727, KRAS G12V, Lung, read-out: Proliferation Inhibition (EC50)): 8.38
- pEC50 (NCI-H1299, NCIH1299, NRAS Q61K, Lung, read-out: Proliferation Inhibition (EC50)): 7.58
- pEC50 (NCI-H1373, NCIH1373, KRAS G12C, Lung, read-out: Proliferation Inhibition (EC50)): 8.28
- pEC50 (NCI-H1792, NCIH1792, KRAS G12C, Lung, read-out: Proliferation Inhibition (EC50)): 8.13
- pEC50 (NCI-H2009, NCIH2009, KRAS G12A, Lung, read-out: Proliferation Inhibition (EC50)): 7.71
- pEC50 (NCI-H2087, NCIH2087, NRAS Q61K, Lung, read-out: Proliferation Inhibition (EC50)): 8.40
- pEC50 (NCI-H2122, NCIH2122, KRAS G12C, Lung, read-out: Proliferation Inhibition (EC50)): 8.17
- pEC50 (NOZ, KRAS G12V, Liver/Bile duct, read-out: Proliferation Inhibition (EC50)): 7.48
- pEC50 (NRAS^Q61X cells, read-out: median EC50, cell growth inhibition): 7.66
- pEC50 (OVCAR-5, OVCAR5, KRAS G12V, Ovary, read-out: Proliferation Inhibition (EC50)): 8.70
- pEC50 (PANC-1, PANC1, KRAS G12D, Pancreas, read-out: Proliferation Inhibition (EC50)): 8.85
- pEC50 (PANC-03-27, PANC0327, KRAS G12V, Pancreas, read-out: Proliferation Inhibition (EC50)): 9.00
- pEC50 (PL45, PL45, KRAS G12D, Pancreas, read-out: Proliferation Inhibition (EC50)): 7.06
- pEC50 (Panc 05.04, PANC0504, KRAS G12D, Pancreas, read-out: Proliferation Inhibition (EC50)): 8.21
- pEC50 (Panc1005, PANC1005, KRAS G12D, Pancreas, read-out: Proliferation Inhibition (EC50)): 7.57
- pEC50 (RBE, KRAS G12V, Liver/Bile duct, read-out: Proliferation Inhibition (EC50)): 8.24
- pEC50 (RKO*, BRAF V600E, Intestine/Large/Colorectum, read-out: Proliferation Inhibition (EC50)): < 7.00
- pEC50 (SHP77, SHP77, KRAS G12V, Lung, read-out: Proliferation Inhibition (EC50)): < 7.00
- pEC50 (SK-CO-1, SKCO1, KRAS G12V, Intestine/Large/Colorectum, read-out: Proliferation Inhibition (EC50)): 8.52
- pEC50 (SK-LU-1, SKLU1, KRAS G12D, Lung, read-out: Proliferation Inhibition (EC50)): 8.22
- pEC50 (SK-MEL-2, SKMEL2, NRAS Q61R, Skin, read-out: Proliferation Inhibition (EC50)): 7.41
- pEC50 (SK-N-AS, SKNAS, NRAS Q61K, Brain and Nerves, read-out: Proliferation Inhibition (EC50)): 8.08
- pEC50 (SK-N-SH, SKNSH, NRAS Q61K, Brain and Nerves, read-out: Proliferation Inhibition (EC50)): < 7.00
- pEC50 (SNU1, SNU1, KRAS G12D, Stomach, read-out: Proliferation Inhibition (EC50)): 7.89
- pEC50 (SNU719, NRAS Q61L, Stomach, read-out: Proliferation Inhibition (EC50)): 7.49
- pEC50 (SNU-387, SNU387, NRAS Q61K, Liver, read-out: Proliferation Inhibition (EC50)): 8.04
- pEC50 (SNU-601, SNU601, KRAS G12D, Stomach, read-out: Proliferation Inhibition (EC50)): 7.58
- pEC50 (SNUC2A, KRAS G12D, Intestine/Large/Colorectum, read-out: Proliferation Inhibition (EC50)): < 7.00
- pEC50 (SU.86.86, SU8686, KRAS G12D, Pancreas, read-out: Proliferation Inhibition (EC50)): 7.69
- pEC50 (SW480, SW480, KRAS G12V, Intestine/Large/Colorectum, read-out: Proliferation Inhibition (EC50)): 8.29
- pEC50 (SW626, SW626, KRAS G12V, Ovary, read-out: Proliferation Inhibition (EC50)): 8.42
- pEC50 (SW756, SW756, KRAS G12C, Ovary, read-out: Proliferation Inhibition (EC50)): 7.57
- pEC50 (SW837, SW837, KRAS G12C, Intestine/Large/Colorectum, read-out: Proliferation Inhibition (EC50)): 7.73
- pEC50 (SW900, SW900, KRAS G12V, Lung, read-out: Proliferation Inhibition (EC50)): 8.51
- pEC50 (SW 1116, SW1116, KRAS G12A, Intestine/Large/Colorectum, read-out: Proliferation Inhibition (EC50)): 7.15
- pEC50 (SW1271, SW1271, NRAS Q61R, Lung, read-out: Proliferation Inhibition (EC50)): 8.34
- pEC50 (SW1463, SW1463, KRAS G12C, Intestine/Large/Colorectum, read-out: Proliferation Inhibition (EC50)): 7.69
- pEC50 (SW1573, SW1573, KRAS G12C, Lung, read-out: Proliferation Inhibition (EC50)): < 7.00
- pEC50 (SW1990, SW1990, KRAS G12D, Pancreas, read-out: Proliferation Inhibition (EC50)): 8.17
- pEC50 (SW-403, SW403, KRAS G12V, Intestine/Large/Colorectum, read-out: Proliferation Inhibition (EC50)): 8.46
- pEC50 (SW-620, SW620, KRAS G12V, Intestine/Large/Colorectum, read-out: Proliferation Inhibition (EC50)): 8.57
- pEC50 (UMUC3, UMUC3, KRAS G12C, Bladder, read-out: Proliferation Inhibition (EC50)): 8.59
- pEC50 (YCC2, KRAS G12S, Stomach, read-out: Proliferation Inhibition (EC50)): 7.64
- pEC50 (all three BRAF^V600E mutant cells, read-out: resistance to growth inhibition): < 7.00
